Like-named read-outs stand apart in the source and are kept apart here.
How the values were obtained:
[1] = tested on: wild-type HIV-1 (HIV-1LAI) in MT-4 cells (permissive); test: Antiviral activity assay: wild-type HIV-1 in permissive MT4 cells, reverse transcriptase activity in culture supernatants; format: cell-based
[2] = tested on: wild-type HIV-1 (HIV-1LAI) in H9 cells (non-permissive); test: microbe, parasite or virus in culture; format: cell-based
[3] = Human immunodeficiency virus 1, MT4, Table 2, wild-type HIV-1, permissive MT4 cells, read-out: Antiviral activity (IC50 μM) MT4
[4] = Human immunodeficiency virus 1, MT4, wild-type HIV-1 (HIV-1LAI), MT4 cells (permissive), RT activity in culture supernatants, compounds 1 to 50 μM, read-out: Antiviral activity (IC50 μM) MT4 cells
[5] = Human immunodeficiency virus 1, H9, read-out: Antiviral activity (IC50 μM) H9, Table 2, wild-type HIV-1, non-permissive H9 cells
[6] = Human immunodeficiency virus 1, H9, read-out: Antiviral activity (IC50 μM) H9 cells, Table 5, wild-type HIV-1, non-permissive H9 cells
[7] = Human immunodeficiency virus 1, H9, read-out: Antiviral activity (IC50 μM) H9 cells, Table 8, wild-type HIV-1, non-permissive H9 cells
[8] = Human immunodeficiency virus 1, H9, read-out: Antiviral activity (IC50 μM) H9 cells, wild-type HIV-1 (HIV-1LAI), H9 cells (non-permissive), RT activity in culture supernatants, compounds 1 to 50 μM
[9] = Human immunodeficiency virus 1, H9, read-out: Antiviral activity (IC50 μM) H9 Cells, Table 4, wild-type HIV-1, non-permissive H9 cells
[10] = Human immunodeficiency virus 1, H9, read-out: Antiviral activity (IC50 μM) H9 Cells, Table 7, wild-type HIV-1, non-permissive H9 cells
[11] = Human immunodeficiency virus 1, H9, read-out: IC50, anti-HIV-1 activity, non-permissive H9 cells

SMILES	IC50 [1, 3] [µM]	IC50 [1, 4] [µM]	IC50 [2, 5] [µM]	IC50 [2, 6] [µM]	IC50 [2, 7] [µM]	IC50 [2, 8] [µM]	IC50 [2, 9] [µM]	IC50 [2, 10] [µM]	IC50 [2, 11] [µM]
COc1cccc(F)c1-n1cc(-c2ccccc2S(=O)(=O)c2ccc(C(=O)O)cc2)nn1 [Compound 7fy, 4-((2-(1-(2-Fluoro-6-methoxyphenyl)-1H-1,2,3-triazol-4-yl)phenyl)sulfonyl)benzoic Acid]	> 50	> 50	> 50	> 50	> 50	> 50	–	–	–
COc1ccccc1-n1cc(-c2ccccc2S(=O)(=O)c2ccc(C(F)(F)F)cc2)nn1 [Compound 2dy, 1-(2-Methoxyphenyl)-4-(2-((4-(trifluoromethyl)phenyl)sulfonyl)phenyl)-1H-1,2,3-triazole]	> 50	> 50	4.8	4.8	4.8	4.8	4.8	4.8	–
COc1cccc(-n2cc(-c3ccccc3Sc3ccc([N+](=O)[O-])cc3)nn2)c1OC [Compound 3ax, 1-(2,3-Dimethoxyphenyl)-4-(2-((4-nitrophenyl)thio)phenyl)-1H-1,2,3-triazole]	> 50	> 50	1.1	1.1	1.1	1.1	1.1	1.1	1 to 3
COc1ccc(S(=O)(=O)c2ccccc2-c2cn(-c3cc(OC)ccc3OC)nn2)cc1 [Compound 5cy, 1-(2,5-Dimethoxyphenyl)-4-(2-((4-methoxyphenyl)sulfonyl)phenyl)-1H-1,2,3-triazole]	> 50	> 50	> 50	> 50	> 50	> 50	–	–	–
COc1ccccc1-n1cc(-c2ccccc2S(=O)(=O)c2ccc(C(=O)O)cc2)nn1 [Compound 2fy, 4-((2-(1-(2-Methoxyphenyl)-1H-1,2,3-triazol-4-yl)phenyl)sulfonyl)benzoic acid]	> 50	> 50	8.2	8.2	8.2	8.2	8.2	8.2	–
COc1ccc(-n2cc(-c3ccccc3Sc3ccc(C(=O)O)cc3)nn2)c(OC)c1 [Compound 4fx, 4-((2-(1-(2,4-Dimethoxyphenyl)-1H-1,2,3-triazol-4-yl)phenyl)thio)benzoic Acid]	> 50	> 50	7.1	7.1	7.1	7.1	7.1	7.1	–
COc1cccc(F)c1-n1cc(-c2ccccc2Sc2ccc(C(=O)O)cc2)nn1 [Compound 7fx, 4-((2-(1-(2-Fluoro-6-methoxyphenyl)-1H-1,2,3-triazol-4-yl)phenyl)thio)benzoic Acid]	> 50	> 50	4.9	4.9	4.9	4.9	4.9	4.9	–
COC(=O)c1ccc(S(=O)(=O)c2ccccc2-c2cn(-c3c(OC)cccc3OC)nn2)cc1 [Compound 6by, Methyl 4-((2-(1-(2,6-dimethoxyphenyl)-1H-1,2,3-triazol-4-yl)phenyl)sulfonyl)benzoate]	> 50	> 50	> 50	> 50	> 50	> 50	–	–	–
COc1cccc(OC)c1-n1cc(-c2ccccc2Sc2ccc(C(=O)O)cc2)nn1 [Compound 6fx, 4-((2-(1-(2,6-Dimethoxyphenyl)-1H-1,2,3-triazol-4-yl)phenyl)thio)benzoic Acid]	> 50	> 50	1.9	1.9	1.9	1.9	1.9	1.9	1 to 3
COc1ccc(S(=O)(=O)c2ccccc2-c2cn(-c3c(F)cccc3OC)nn2)cc1 [Compound 7cy, 1-(2-Fluoro-6-methoxyphenyl)-4-(2-((4-methoxyphenyl)sulfonyl)phenyl)-1H-1,2,3-triazole]	> 50	> 50	> 50	> 50	> 50	> 50	–	–	–

Source: US11136301B2, “Broad spectrum antiviral compounds and uses thereof” (The Regents Of The University Of California, priority 2015, dated 2021)
